Assay results reported in patent US20070265164A1, “Active Substances for Increasing Pathogenic Defense in Plants and Methods for the Detection Thereof” (Bayer Cropscience GmbH, priority 2004, published 2007).

Columns and labels:
Format in all cases: in vivo
Design in all cases: fold induction: dose or concentration left out as unconfirmed
[1] = tested on: HI02E21u_s_at, Lipoxygenase (EC 1.13.11.12); experiment: GEP, barley DNA chip, probe set 1.2; conditions: Hordeum vulgare, topical, read-out: Expression value, 1.2 HI02E21u_s_at
Experimental: (§1) Barley plants (cv. Baronesse) were grown in compost-filled pots (diameter: 10 cm) for 10 days in a controlled-environment cabinet under defined light, humidity and temperature conditions (white light, 70% atmospheric humidity, 24° C.). At the time of spray application, the seedlings were approximately 15 cm in size. The test substances selected in this example were molecules which differ markedly in their structure and which have a well documented pronounced safener effect, and other molecules which are known from the literature to have an effect on plant stress and pathogen tolerance (Table 1). The substances were prepared as stock solutions in DMSO (dimethyl sulfoxide) at c=10 mg/ml). This was used for preparing dilutions in water supplemented with 0.2% Agrotin (comprises polyvinyl alcohol, silicones, polysaccharides and pH regulators, manufacturer: Bayer CropScience AG, Monheim, Germany), as wetter, to give the application rates shown in the table. The amount of liquid for the spray application was 800 μl per pot, corresponding to 800 l/ha. For each 800 μl of spray mixture, 16 μl of EC premix: diacetone alcohol=1:6 were additionally added as formulation auxiliaries. The substances listed in Table 1 were applied to the leaves by means of a pneumatic spray pistol. Each substance was sprayed as 2 dosages, and all experiments were carried out as replicates (2 pots per substance). Sprayings with blank formulation without active ingredient were carried out as controls. After 6 hours, the leaves were harvested, frozen in liquid nitrogen and stored at −80° C. until further use. The labeled RNA probes for the DNA chip hybridization were prepared as described in the protocols (Expression Analysis, Technical Manual) from Affymetrix (Affymetrix Inc., 3380 Central Expressway, Santa Clara, Calif., USA). First, total RNA was isolated from in each case 500 mg of the harvested leaves. In each case 10 μg of total RNA was used for the first-strand and second-strand cDNA synthesis. The cDNA was amplified with T7 polymerase and simultaneously labeled with biotin-UTP. In each case, 20 μg of this biotinylated cDNA was employed for the hybridization of the barley genome array (Gene Chip Barleyl, order No.: 511012) from Affymetrix. This DNA microarray comprises DNA sequences of 22 840 genes which are composed of a total of 400 000 EST sequences. Thereafter, the DNA microarrays were washed in the Affymetrix Fluidics Station, stained with streptavidin/phycoerythrin (Molecular Probes, P/N S-866) and scanned with the matching Agilent Laser Scanner (Agilent Gene Array Scanner). The fluorescent data obtained were analyzed with the software Microarray Suite 5 from Affymetrix. After the quality had been checked, all DNA chip analyses were stored in a database. To determine the relative expression values for genes (induction factors, repression factors), test and control chips were compared with each other, and the scoring function set by the Affymetrix software was used as the basis. The 2 biological replications of one experiment were compared in each case with 2 control chips (blank formulation), and the 4 expression values obtained for each gene were used for calculating the median. These medians are shown in the results tables as induction factors. Similarity comparisons of expression profiles from different experiments and cluster analyses were carried out using the software GeneMaths 1.5 from Applied Maths (Applied Maths, Keistraat 120, 9830 Sint-Martens-Latem, Belgium).
(§2) Gene groups from specific metabolic pathways and signal transduction chains were put together by key word search in the annotations, of the genes, which were also provided by Affymetrix, and by Blast analyses (homology comparisons) of the DNA target sequences, i.e. of the positive sequence (identified on the basis of a modified expression profile) identified on the DNA chip, using gene sequences from other organisms, preferably plant organisms, with characterized functions. […]

[2] = tested on: Contig3097_at, Allene oxide synthase; experiment: GEP, barley DNA chip, probe set 1.3; conditions: Hordeum vulgare, topical, read-out: Expression value, 1.3 Contig3097_at
Experimental: as §1, §2

[3] = tested on: Contig 4986_at, Allene oxide cyclase; experiment: GEP, barley DNA chip, probe set 1.5; conditions: Hordeum vulgare, topical, read-out: Expression value, 1.5 Contig 4986_at
Experimental: as §1, §2

[4] = tested on: Contig9556_at, 12-oxophytodienoate reductase 3; experiment: GEP, barley DNA chip, probe set 1.8; conditions: Hordeum vulgare, topical, read-out: Expression value, 1.8 Contig9556_at
Experimental: as §1, §2

[5] = tested on: Contig2305_at, Methyljasmonate inducible lipoxygenase; experiment: GEP, barley DNA chip, probe set 1.14; conditions: Hordeum vulgare, topical, read-out: Expression value, 1.14 Contig2305_at
Experimental: as §1, §2

[6] = tested on: Contig3096_s_at, Allene oxide synthase; experiment: GEP, barley DNA chip, probe set 1.16; conditions: Hordeum vulgare, topical, read-out: Expression value, 1.16 Contig3096_s_at
Experimental: as §1, §2

[7] = tested on: Contig13413_at, Similar to lipases; experiment: GEP, barley DNA chip, probe set 1.17; conditions: Hordeum vulgare, topical, read-out: Expression value, 1.17 Contig13413_at
Experimental: as §1, §2

[8] = tested on: Contig2330_x_at, 12-oxophytodienoic acid reductase; experiment: GEP, barley DNA chip, probe set 1.19; conditions: Hordeum vulgare, topical, read-out: Expression value, 1.19 Contig2330_x_at
Experimental: as §1, §2

[9] = tested on: Contig2337_at, 12-oxophytodienoate reductase (OPR1); experiment: GEP, barley DNA chip, probe set 1.20; conditions: Hordeum vulgare, topical, read-out: Expression value, 1.20 Contig2337_at
Experimental: as §1, §2

[10] = tested on: Contig88_x_at, Putative proteinase inhibitor; experiment: GEP, barley DNA chip, probe set 2.3; conditions: Hordeum vulgare, topical, read-out: Expression value, 2.3 Contig88_x_at
Experimental: as §1, §2

[11] = tested on: HD07M22r_s_at, Proteinase-Inhibitor (pir S71555, barley); experiment: GEP, barley DNA chip, probe set 2.4; conditions: Hordeum vulgare, topical, read-out: Expression value, 2.4 HD07M22r_s_at
Experimental: as §1, §2

[12] = tested on: Contig8905_at, Xytanase inhibitor protein; experiment: GEP, barley DNA chip, probe set 3.1; conditions: Hordeum vulgare, topical, read-out: Expression value, 3.1 Contig8905_at
Experimental: as §1, §2

[13] = tested on: Contig5369_at, Pathogen-related protein; experiment: GEP, barley DNA chip, probe set 4.2; conditions: Hordeum vulgare, topical, read-out: Expression value, 4.2 Contig5369_at
Experimental: as §1, §2

[14] = barley leaves 6 h after spray application, rates of Table 1 (S7 500), median induction factor vs control

**Q.** `O=C(O)c1cc(Cl)cc(Cl)c1O` [S10] was tested. Which fold induction [1, 14] did it give?
**A.** 4.66

**Q.** And the fold induction [2, 14]?
**A.** 1

**Q.** What about the fold induction [3, 14] of the same compound?
**A.** 1

**Q.** What about the fold induction [4, 14] of the same compound?
**A.** 1

**Q.** What about the fold induction [5, 14] of the same compound?
**A.** 18.1

**Q.** And the fold induction [6, 14]?
**A.** 1

**Q.** And the fold induction [7, 14]?
**A.** 1

**Q.** And the fold induction [8, 14]?
**A.** 1

**Q.** What about the fold induction [9, 14] of the same compound?
**A.** 1

**Q.** And the fold induction [10, 14]?
**A.** 4.41

**Q.** And the fold induction [11, 14]?
**A.** 1

**Q.** And the fold induction [12, 14]?
**A.** 1

**Q.** And the fold induction [13, 14]?
**A.** 1

**Q.** With `CCOC(=O)C1=NOC(c2ccccc2)(c2ccccc2)C1` [S3, Isoxadifen-ethyl] as the compound, how does the fold induction at 150 g/ha ([1]; 6 h) read?
**A.** 40.8

**Q.** And the fold induction at 150 g/ha ([2]; 6 h)?
**A.** 8.51

**Q.** What about the fold induction at 150 g/ha ([3]; 6 h) of the same compound?
**A.** 3.76

**Q.** And the fold induction at 150 g/ha ([4]; 6 h)?
**A.** 3.03

**Q.** And the fold induction at 150 g/ha ([5]; 6 h)?
**A.** 2.14

**Q.** What about the fold induction at 150 g/ha ([6]; 6 h) of the same compound?
**A.** 1

**Q.** And the fold induction at 150 g/ha ([7]; 6 h)?
**A.** 1

**Q.** What about the fold induction at 150 g/ha ([8]; 6 h) of the same compound?
**A.** 1

**Q.** What about the fold induction at 150 g/ha ([9]; 6 h) of the same compound?
**A.** 1

**Q.** And the fold induction at 150 g/ha ([10]; 6 h)?
**A.** 4.53

**Q.** What about the fold induction at 150 g/ha ([11]; 6 h) of the same compound?
**A.** 2.71

**Q.** And the fold induction at 150 g/ha ([12]; 6 h)?
**A.** 2.99

**Q.** And the fold induction at 150 g/ha ([13]; 6 h)?
**A.** 4.76
